Measured values reported in ChEMBL document CHEMBL1201862, “PubChem BioAssay data set” (2004).
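Dose response: 5 concentrations. Exposure: 48 h. Format: 96-well plates. Endpoint: linear interpolation; highest concentration if not reached. GI50 marks 50% less growth.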 Active and inactive are the calls of the source. Rule as the data show it: active = GI50 up to about 1.1 µM and inactive = higher.

Experiments:
Assay in all cases: growth of human tumour cells (NCI), 48 h
A498 = test system: A498
CCRF-CEM = test system: CCRF-CEM
DLD-1 = test system: DLD-1
EKVX = test system: EKVX
MOLT-4 = test system: MOLT-4
Malme-3M = test system: Malme-3M
NCI-H522 = test system: NCI-H522
NCI/ADR-RES = test system: NCI/ADR-RES
RPMI-8226 = test system: RPMI-8226
RXF 393 = test system: RXF 393
SF-295 = test system: SF-295
SK-MEL-5 = test system: SK-MEL-5
SN12C = test system: SN12C
SNB-19 = test system: SNB-19
HOP-62 = test system: HOP-62
786-0 = test system: 786-0
BT-549 = test system: BT-549
DU-145 = test system: DU-145
Hs-578T = test system: Hs-578T
MDA-N = test system: MDA-N

Row | SMILES | GI50 (A498) | GI50 (CCRF-CEM) | GI50 (DLD-1) | GI50 (EKVX) | GI50 (MOLT-4) | GI50 (Malme-3M) | GI50 (NCI-H522) | GI50 (NCI/ADR-RES) | GI50 (RPMI-8226) | GI50 (RXF 393) | GI50 (SF-295) | GI50 (SK-MEL-5) | GI50 (SN12C) | GI50 (SNB-19) | GI50 (HOP-62) | GI50 (786-0) | GI50 (BT-549) | GI50 (DU-145) | GI50 (Hs-578T) | GI50 (MDA-N)
1 | CCOC(=O)C1=C(C(C)=O)CSC(c2ccccc2)=N1 | > 100 µM (inactive) | > 100 µM (inactive) | > 100 µM (inactive) | > 100 µM (inactive) | > 100 µM (inactive) | > 100 µM (inactive) | > 100 µM (inactive) | > 100 µM (inactive) | > 100 µM (inactive) | > 100 µM (inactive) | > 100 µM (inactive) | > 100 µM (inactive) | > 100 µM (inactive) | > 100 µM (inactive) |  |  |  |  |  | 
2 | O=C(c1ccccc1O)c1cc(-c2ncc3c(=O)c4ccccc4oc3n2)c(-c2ccccc2O)[nH]c1=O | 21.3 µM (inactive) | 26 µM (inactive) | 24.4 µM (inactive) | 36.5 µM (inactive) | 18.1 µM (inactive) | 30 µM (inactive) | 25.2 µM (inactive) | 31.7 µM (inactive) | 20.1 µM (inactive) | 23.4 µM (inactive) | 11.4 µM (inactive) | 12 µM (inactive) | 23.8 µM (inactive) | 8.73 µM (inactive) | 18.5 µM (inactive) |  |  |  |  | 
3 | COc1cccc(-c2nc3c(C(=O)NCCN(C)C)cccc3[nH]2)c1 | 16.3 µM (inactive) | 8.05 µM (inactive) | 18.5 µM (inactive) | 34.4 µM (inactive) | 3.38 µM (inactive) | 14 µM (inactive) | 15.2 µM (inactive) | 18 µM (inactive) | 13.2 µM (inactive) | 20.7 µM (inactive) | 16.2 µM (inactive) | 16.7 µM (inactive) | 17.4 µM (inactive) | 31.3 µM (inactive) | 15.1 µM (inactive) |  |  |  |  | 
4 | COC(=O)C(C/C=C(\C)c1ccccc1)C(C)=O (centres undefined) | > 100 µM (inactive) | 40.9 µM (inactive) | 89.5 µM (inactive) | > 100 µM (inactive) | 16.4 µM (inactive) | > 100 µM (inactive) | 76.7 µM (inactive) | 54.6 µM (inactive) | 27.2 µM (inactive) | > 100 µM (inactive) | 18.4 µM (inactive) | 59.6 µM (inactive) | > 100 µM (inactive) | > 100 µM (inactive) | > 100 µM (inactive) |  |  |  |  | 
5 | NS(=O)(=O)c1ccc(NC(=O)C2C(=O)C(=O)N(c3ccc(S(N)(=O)=O)cc3)C2=O)cc1 (centres undefined) | > 100 µM (inactive) | > 100 µM (inactive) | > 100 µM (inactive) | > 100 µM (inactive) | > 100 µM (inactive) | > 100 µM (inactive) | > 100 µM (inactive) |  | > 100 µM (inactive) | > 100 µM (inactive) | > 100 µM (inactive) | > 100 µM (inactive) | > 100 µM (inactive) | > 100 µM (inactive) | > 100 µM (inactive) | > 100 µM (inactive) |  |  |  | 
6 | O=c1c2cc([N+](=O)[O-])ccc2sc2ccsc12 | > 100 µM (inactive) | > 100 µM (inactive) | > 100 µM (inactive) | > 100 µM (inactive) | > 100 µM (inactive) | > 100 µM (inactive) | > 100 µM (inactive) |  | > 100 µM (inactive) | > 100 µM (inactive) | > 100 µM (inactive) | > 100 µM (inactive) | > 100 µM (inactive) | > 100 µM (inactive) | > 100 µM (inactive) | > 100 µM (inactive) |  |  |  | 
7 | COC(=O)[C@]1(c2ccc(N(C)C)cc2OC)C[C@@H]2CCCN(CCc3c1[nH]c1ccccc31)C2 | 19 µM (inactive) | 25 µM (inactive) | 27.2 µM (inactive) | 22.3 µM (inactive) | 31 µM (inactive) | 15.9 µM (inactive) | 17.4 µM (inactive) | 18.8 µM (inactive) | 28.1 µM (inactive) | 19.8 µM (inactive) | > 43.7 µM (inactive) | 17.2 µM (inactive) | 19.3 µM (inactive) | 74 µM (inactive) | 30.3 µM (inactive) |  |  |  |  | 
8 | CC(C)(C)c1nc2c(o1)/C(=N\c1ccc(F)cc1)c1ccccc1C2=O | 27.4 µM (inactive) | > 100 µM (inactive) | 4.11 µM (inactive) | 23.7 µM (inactive) | > 100 µM (inactive) | 1.97 µM (inactive) | 5.36 µM (inactive) | 6.73 µM (inactive) | 26.9 µM (inactive) | 9.79 µM (inactive) | 6.1 µM (inactive) | 1.7 µM (inactive) | 5.69 µM (inactive) | 8.24 µM (inactive) | 15.9 µM (inactive) | 27.2 µM (inactive) | 3.45 µM (inactive) | 10.4 µM (inactive) | 6.68 µM (inactive) | 2.37 µM (inactive)
9 | Nc1ncnc2c1ncn2C1C=C(CO)C(O)C1O (centres undefined) | 15.9 µM (inactive) | 0.305 µM (active) | 5.6 µM (inactive) | 25.8 µM (inactive) | 0.249 µM (active) | 5.33 µM (inactive) | 3.99 µM (inactive) | 5.61 µM (inactive) | 0.256 µM (active) | 9.59 µM (inactive) | 24.5 µM (inactive) | 20.3 µM (inactive) | 7.03 µM (inactive) | 16 µM (inactive) | 3.26 µM (inactive) | 4.17 µM (inactive) | 1.99 µM (inactive) | 5.69 µM (inactive) | 83.6 µM (inactive) | 3.37 µM (inactive)
